From PubChem BioAssay (NCI)
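Step 1: Grow cells in 96-well plates. Step 2: Expose to compound for 48 hours at 5 concentrations. Step 3: Interpolate endpoints linearly; if unreached, use highest concentration. The concentration for full growth arrest is given as TGI.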

Key:
Test in all cases: NCI tumour cell line growth inhibition, 48 h
786-0 renal = tested on: 786-0 renal
A498 renal = tested on: A498 renal
A549 NSCLC = tested on: A549 NSCLC
ACHN renal = tested on: ACHN renal
CAKI-1 renal = tested on: CAKI-1 renal
COLO 205 colon = tested on: COLO 205 colon
DLD-1 colon = tested on: DLD-1 colon
DMS 114 small cell lung = tested on: DMS 114 small cell lung
DMS 273 small cell lung = tested on: DMS 273 small cell lung
EKVX NSCLC = tested on: EKVX NSCLC
HCC-2998 colon = tested on: HCC-2998 colon
HCT-116 colon = tested on: HCT-116 colon
HCT-15 colon = tested on: HCT-15 colon
HOP-18 NSCLC = tested on: HOP-18 NSCLC
HOP-62 NSCLC = tested on: HOP-62 NSCLC
HT29 colon = tested on: HT29 colon
IGROV1 ovarian = tested on: IGROV1 ovarian
K-562 leukemia = tested on: K-562 leukemia
KM12 colon = tested on: KM12 colon
KM20L2 colon = tested on: KM20L2 colon
LOX IMVI melanoma = tested on: LOX IMVI melanoma
LXFL 529 NSCLC = tested on: LXFL 529 NSCLC
M14 melanoma = tested on: M14 melanoma
M19-MEL melanoma = tested on: M19-MEL melanoma
MOLT-4 leukemia = tested on: MOLT-4 leukemia
NCI-H23 lung = tested on: NCI-H23 lung
NCI-H460 lung = tested on: NCI-H460 lung
NCI-H522 lung = tested on: NCI-H522 lung
OVCAR-3 ovarian = tested on: OVCAR-3 ovarian
OVCAR-4 ovarian = tested on: OVCAR-4 ovarian
OVCAR-5 ovarian = tested on: OVCAR-5 ovarian
OVCAR-8 ovarian = tested on: OVCAR-8 ovarian
RPMI-8226 leukemia = tested on: RPMI-8226 leukemia
RXF 393 renal = tested on: RXF 393 renal
SF-268 CNS = tested on: SF-268 CNS
SF-295 CNS = tested on: SF-295 CNS
SF-539 CNS = tested on: SF-539 CNS
SK-MEL-28 melanoma = tested on: SK-MEL-28 melanoma
SK-MEL-5 melanoma = tested on: SK-MEL-5 melanoma
SK-OV-3 ovarian = tested on: SK-OV-3 ovarian
SN12C renal = tested on: SN12C renal
SNB-19 CNS = tested on: SNB-19 CNS
SNB-75 CNS = tested on: SNB-75 CNS
SNB-78 CNS = tested on: SNB-78 CNS
SR leukemia = tested on: SR leukemia
SW-620 colon = tested on: SW-620 colon
TK-10 renal = tested on: TK-10 renal
U251 CNS = tested on: U251 CNS
UACC-257 melanoma = tested on: UACC-257 melanoma
UACC-62 melanoma = tested on: UACC-62 melanoma
UO-31 renal = tested on: UO-31 renal
XF 498 CNS = tested on: XF 498 CNS
CCRF-CEM leukemia = tested on: CCRF-CEM leukemia
HL-60(TB) leukemia = tested on: HL-60(TB) leukemia
HOP-92 NSCLC = tested on: HOP-92 NSCLC
MALME-3M melanoma = tested on: MALME-3M melanoma

## Clc1ccc(C2=Nc3ccccc3SC(c3cccs3)C2)cc1 (stereo unspecified)
786-0 renal
  TGI: 29.8 µM
A498 renal
  TGI: 28.1 µM
A549 NSCLC
  TGI: 36 µM
ACHN renal
  TGI: 28.7 µM
CAKI-1 renal
  TGI: 31.3 µM
COLO 205 colon
  TGI: 31.2 µM
DLD-1 colon
  TGI: 22 µM
DMS 114 small cell lung
  TGI: 31.2 µM
DMS 273 small cell lung
  TGI: 27.1 µM
EKVX NSCLC
  TGI: 31.3 µM
HCC-2998 colon
  TGI: 30.9 µM
HCT-116 colon
  TGI: 20 µM
HCT-15 colon
  TGI: 27.1 µM
HOP-18 NSCLC
  TGI: 35 µM
HOP-62 NSCLC
  TGI: 39.3 µM
HT29 colon
  TGI: 27.8 µM
IGROV1 ovarian
  TGI: 28 µM
K-562 leukemia
  TGI: 33.7 µM
KM12 colon
  TGI: 22.5 µM
KM20L2 colon
  TGI: 30.2 µM
LOX IMVI melanoma
  TGI: 19.9 µM
LXFL 529 NSCLC
  TGI: 31.3 µM
M14 melanoma
  TGI: 30 µM
M19-MEL melanoma
  TGI: 28.8 µM
MOLT-4 leukemia
  TGI: > 100 µM
NCI-H23 lung
  TGI: 27.2 µM
NCI-H460 lung
  TGI: 32 µM
NCI-H522 lung
  TGI: 32 µM
OVCAR-3 ovarian
  TGI: 24 µM
OVCAR-4 ovarian
  TGI: 27.2 µM
OVCAR-5 ovarian
  TGI: 27.6 µM
OVCAR-8 ovarian
  TGI: 30.4 µM
RPMI-8226 leukemia
  TGI: 7.26 µM
RXF 393 renal
  TGI: 22.7 µM
SF-268 CNS
  TGI: 30.4 µM
SF-295 CNS
  TGI: 28.2 µM
SF-539 CNS
  TGI: 32 µM
SK-MEL-28 melanoma
  TGI: 31.8 µM
SK-MEL-5 melanoma
  TGI: 30.2 µM
SK-OV-3 ovarian
  TGI: 30.5 µM
SN12C renal
  TGI: 29.3 µM
SNB-19 CNS
  TGI: 30.3 µM
SNB-75 CNS
  TGI: 34.1 µM
SNB-78 CNS
  TGI: 85.2 µM
SR leukemia
  TGI: 62.4 µM
SW-620 colon
  TGI: 25.8 µM
TK-10 renal
  TGI: 31.1 µM
U251 CNS
  TGI: 24.1 µM
UACC-257 melanoma
  TGI: 29.4 µM
UACC-62 melanoma
  TGI: 29.1 µM
UO-31 renal
  TGI: 26.4 µM
XF 498 CNS
  TGI: 29.8 µM

## Cn1nc(-c2ccccc2)c(C(=O)/C=C/c2ccc(F)cc2)c(N2CCCC2)c1=O
786-0 renal
  TGI: 31.2 µM
A549 NSCLC
  TGI: > 100 µM
ACHN renal
  TGI: 62.8 µM
CAKI-1 renal
  TGI: 61.9 µM
CCRF-CEM leukemia
  TGI: 27.8 µM
COLO 205 colon
  TGI: 32.1 µM
DLD-1 colon
  TGI: 39.4 µM
DMS 114 small cell lung
  TGI: 29.1 µM
DMS 273 small cell lung
  TGI: 83.3 µM
EKVX NSCLC
  TGI: 52.9 µM
HCT-116 colon
  TGI: 20.5 µM
HCT-15 colon
  TGI: 70 µM
HL-60(TB) leukemia
  TGI: 23.2 µM
HOP-18 NSCLC
  TGI: 31.8 µM
HOP-92 NSCLC
  TGI: 36.3 µM
HT29 colon
  TGI: 15.3 µM
IGROV1 ovarian
  TGI: 50.5 µM
K-562 leukemia
  TGI: 38.5 µM
KM20L2 colon
  TGI: 28.3 µM
LOX IMVI melanoma
  TGI: > 100 µM
LXFL 529 NSCLC
  TGI: 32.1 µM
M14 melanoma
  TGI: 37.4 µM
M19-MEL melanoma
  TGI: 33.8 µM
MOLT-4 leukemia
  TGI: 31.3 µM
NCI-H23 lung
  TGI: 32.7 µM
NCI-H460 lung
  TGI: 91.7 µM
NCI-H522 lung
  TGI: 20.7 µM
OVCAR-8 ovarian
  TGI: > 100 µM
RPMI-8226 leukemia
  TGI: 30.5 µM
RXF 393 renal
  TGI: 22.1 µM
SF-268 CNS
  TGI: 51 µM
SF-539 CNS
  TGI: 28 µM
SK-MEL-28 melanoma
  TGI: 32.8 µM
SK-MEL-5 melanoma
  TGI: 26.9 µM
SK-OV-3 ovarian
  TGI: 59.1 µM
SN12C renal
  TGI: > 100 µM
SNB-19 CNS
  TGI: 48.6 µM
SW-620 colon
  TGI: 37.1 µM
TK-10 renal
  TGI: 71.4 µM
U251 CNS
  TGI: 29.2 µM
UACC-62 melanoma
  TGI: 38.4 µM
XF 498 CNS
  TGI: 54.2 µM

## O=C(/C=C/c1ccccc1F)c1ccc([N+](=O)[O-])cc1
786-0 renal
  TGI: > 100 µM
A549 NSCLC
  TGI: > 100 µM
ACHN renal
  TGI: > 100 µM
CAKI-1 renal
  TGI: 85.4 µM
COLO 205 colon
  TGI: > 100 µM
DLD-1 colon
  TGI: 39.1 µM
DMS 114 small cell lung
  TGI: 44 µM
DMS 273 small cell lung
  TGI: > 100 µM
EKVX NSCLC
  TGI: > 100 µM
HCC-2998 colon
  TGI: 30.3 µM
HCT-15 colon
  TGI: 43.8 µM
HOP-18 NSCLC
  TGI: > 100 µM
HOP-62 NSCLC
  TGI: > 100 µM
HOP-92 NSCLC
  TGI: 45.5 µM
HT29 colon
  TGI: 39.9 µM
IGROV1 ovarian
  TGI: 63.9 µM
K-562 leukemia
  TGI: 34.8 µM
KM20L2 colon
  TGI: > 100 µM
LOX IMVI melanoma
  TGI: 15.5 µM
LXFL 529 NSCLC
  TGI: 40.7 µM
M14 melanoma
  TGI: 72.6 µM
M19-MEL melanoma
  TGI: 50.5 µM
MALME-3M melanoma
  TGI: 70 µM
NCI-H23 lung
  TGI: > 100 µM
NCI-H460 lung
  TGI: 93 µM
OVCAR-3 ovarian
  TGI: 77.9 µM
OVCAR-4 ovarian
  TGI: 89.7 µM
OVCAR-8 ovarian
  TGI: 73.5 µM
RXF 393 renal
  TGI: 49.8 µM
SF-268 CNS
  TGI: > 100 µM
SF-295 CNS
  TGI: 75.6 µM
SK-MEL-28 melanoma
  TGI: 43.2 µM
SK-OV-3 ovarian
  TGI: > 100 µM
SN12C renal
  TGI: > 100 µM
SNB-75 CNS
  TGI: 42.6 µM
SNB-78 CNS
  TGI: > 100 µM
SW-620 colon
  TGI: 84 µM
TK-10 renal
  TGI: > 100 µM
U251 CNS
  TGI: 31.1 µM
UACC-62 melanoma
  TGI: 81.2 µM
UO-31 renal
  TGI: 39.8 µM
XF 498 CNS
  TGI: 58.9 µM
